Series [1] concerns LNCaP xenograft tumor-bearing mice. Put plainly: Biodistribution studies of 177Lu-labeled ligands in LNCaP xenograft mice. The class given is in vivo. As to conditions: corresponding 177Lu-labeled compound. The procedure: Inoculation of mice with xenografts: All animal studies were approved by the Institutional Animal Care and Use Committee of Weill Cornell Medicine and were undertaken in accordance with the guidelines set forth by the USPHS Policy on Humane Care and Use of Laboratory Animals. Animals were housed under standard conditions in approved facilities with 12 h light/dark cycles. Food and water was provided ad libitum throughout the course of the studies. Hairless male nu/nu mice were purchased from the Jackson Laboratory. For inoculation in mice, LNCaP cells were suspended at 4×10^7 cells/mL in a 1:1 mixture of PBS:Matrigel (BD Biosciences). Each mouse was injected in the left flank with 0.25 mL of the cell suspension. The mice were imaged when the tumors reached approximately 200-400 mm^3, while biodistributions were conducted when tumors were in the range 100-400 mm^3.
Biodistribution studies of ^177Lu-labeled ligands in LNCaP xenograft mice: LNCaP xenograft tumor-bearing mice (5 per time point per compound) were injected intravenously with a bolus injection of 348-851 kBq (9.4-23 μCi) and 37-50 ng (23-25 pmol) of each ligand. The mice were sacrificed at 4, 24 and 96 h post injection. A blood sample was removed, and a full biodistribution study was conducted on the following organs (with contents): heart, lungs, liver, small intestine, large intestine, stomach, spleen, pancreas, kidneys, muscle, bone and tumor. Tissues were weighed and counted on a 2470 Wizard^2 Automatic Gamma Counter (Perkin Elmer). Counts were corrected for decay and for activity injected, and tissue uptake was expressed as percent injected dose per gram (% ID/g). Standard error measurement was calculated for each data point.

For the next series, the target named is PSMA on LNCaP cells (Homo sapiens, UniProt Q04609). Put plainly: Multi-concentration competitive binding assay against 99mTc-MIP-1427 (Section 1.3). Details: host or cells: LNCaP.
Sequence of PSMA on LNCaP cells (Q04609 whole entry): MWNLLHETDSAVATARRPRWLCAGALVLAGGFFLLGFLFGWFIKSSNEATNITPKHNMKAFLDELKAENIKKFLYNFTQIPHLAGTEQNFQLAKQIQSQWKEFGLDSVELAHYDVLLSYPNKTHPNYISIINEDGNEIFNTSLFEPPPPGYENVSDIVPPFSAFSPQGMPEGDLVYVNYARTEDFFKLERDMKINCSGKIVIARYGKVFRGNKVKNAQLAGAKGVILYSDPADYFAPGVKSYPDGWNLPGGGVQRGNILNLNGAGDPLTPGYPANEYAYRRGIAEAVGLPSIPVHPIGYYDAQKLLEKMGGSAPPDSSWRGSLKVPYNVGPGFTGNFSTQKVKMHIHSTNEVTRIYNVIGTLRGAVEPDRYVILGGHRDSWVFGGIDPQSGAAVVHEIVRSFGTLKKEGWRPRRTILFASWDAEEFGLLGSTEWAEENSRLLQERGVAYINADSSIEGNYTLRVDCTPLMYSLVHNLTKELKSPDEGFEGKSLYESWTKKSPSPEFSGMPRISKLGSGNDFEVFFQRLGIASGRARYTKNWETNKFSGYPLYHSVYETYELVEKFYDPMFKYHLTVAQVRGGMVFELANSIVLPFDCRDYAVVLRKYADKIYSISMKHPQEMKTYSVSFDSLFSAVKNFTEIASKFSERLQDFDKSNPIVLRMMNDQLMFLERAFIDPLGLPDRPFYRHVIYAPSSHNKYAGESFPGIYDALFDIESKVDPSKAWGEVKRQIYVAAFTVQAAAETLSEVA
Setting [2] is: non-labeled, metal-free ligands, competitive binding in LNCaP cells vs 1 nM 99mTc-MIP-1427, 2 h, read-out: IC50.

Broadly, the IC50 is the concentration at which inhibition is half-maximal.

Read-outs that look alike come from different tables or passages of the source. Marks after values point to notes of the source that are not given here.

Description for PSMA on LNCaP cells: Cell Culture: The PSMA expressing human prostate cancer cell line, LNCaP, was obtained from the American Type Culture Collection. Cell culture supplies were obtained from Invitrogen unless otherwise noted. LNCaP cells were maintained in RPMI-1640 medium supplemented with 10% fetal bovine serum (Hyclone), 4 mM L-glutamine, 1 mM sodium pyruvate, 10 mM N-2-hydroxyethylpiperazine-N-2-ethanesulfonic acid (HEPES), 2.5 mg/mL D-glucose, and 50 μg/mL gentamicin in a humidified incubator at 37° C./5% CO2. Cells were removed from flasks for passage or for transfer to 12-well assay plates by incubating them with 0.25% trypsin/ethylenediaminetetraacetic acid (EDTA).
In vitro determination of IC50: IC50 values of the non-labeled, metal-free ligands were determined by screening in a multi-concentration competitive binding assay against ^99mTc-((7S,12S,16S)-1-(1-(carboxymethyl)-1H-imidazol-2-yl)-2-((1-(carboxymethyl)-1H-imidazol-2-yl)methyl)-9,14-dioxo-2,8,13,15-tetraazaoctadecane-7,12,16,18-tetracarboxylic acid technetium tricarbonyl complex) (^99mTc-MIP-1427) for binding to PSMA on LNCaP cells, according to previously described methods [18,19] with small modifications. Briefly, LNCaP cells were plated 48 h prior to the experiment to achieve a density of approximately 5×10^5 cells/well (in triplicate) in RPMI-1640 medium supplemented with 0.25% bovine serum albumin. The cells were incubated for 2 h with 1 nM ^99mTc-MIP-1427 in serum-free RPMI-1640 medium in the presence of 0.001-10,000 nM test compounds. Radioactive incubation media was then removed by pipette and the cells were washed twice using 1 mL ice-cold PBS 1× solution. Cells were harvested from the plates following treatment with 1 mL 1M NaOH and transferred to tubes for radioactive counting using a 2470 Wizard^2 Automatic Gamma Counter (Perkin Elmer). Standard solutions (10% of activity added to each well) were prepared to enable decay correction. IC50 values were determined by fitting the data points to a sigmoidal Hills1 curve in Origin software.

On to `O=C(O)CC[C@H](NC(=O)N[C@@H](CCCCNC(=O)Nc1cccc(-c2cn(CCOCCOCCOCCOCCC(=O)N[C@@H](CCCCNC(=S)Nc3ccc(CC4CN(CC(=O)O)CCN(CC(=O)O)CCN(CC(=O)O)CCN4CC(=O)O)cc3)C(=O)N[C@@H](CCCCNC(=O)Cc3ccc(I)cc3)C(=O)O)nn2)c1)C(=O)O)C(=O)O` (stereo partly drawn) [RPS-061, (((1S)-1-carboxy-5-(3-(3-(1-((17S,20S)-20-carboxy-27-(4-iodophenyl)-15,18,26-trioxo-17-(4-(3-(4-((1,4,7,10-tetrakis(carboxymethyl)-1,4,7,10-tetraazacyclododecan-2-yl)methyl)phenyl)thioureido)butyl)-3,6,9,12-tetraoxa-16,19,25-triazaheptacosyl)-1H-1,2,3-triazol-4-yl)phenyl)ureido)pentyl)carbamoyl)-L-glutamic acid], for which the “Max. Tumor Uptake” value in series [1] (a = 4 h p.i.) is listed as 20.4 % ID/g. Further, at PSMA on LNCaP cells (setting [2]), the IC50 came out at 4.1 nM.

In the case of `O=C(O)CCC(NC(=O)NC(CCCCNC(=O)C(Cc1ccc2ccccc2c1)NC(=O)C1CCC(CNC(=O)CN2CCN(CC(=O)O)CCN(CC(=O)O)CCN(CC(=O)O)CC2)CC1)C(=O)O)C(=O)O` (stereo not shown) [PSMA-617, reference compound], in series [1] (a = 4 h p.i.), the “Max. Tumor Uptake” value is 14.4 ± 2.5 % ID/g. For the same compound, on PSMA on LNCaP cells (setting [2]), the IC50 stood at 6.6 ± 0.7 nM.

As to `O=C(O)CC[C@H](NC(=O)N[C@@H](CCCCNC(=O)Nc1cccc(-c2cnnn2CC(=O)N[C@@H](CCCCNC(=S)Nc2ccc(CC3CN(CC(=O)O)CCN(CC(=O)O)CCN(CC(=O)O)CCN3CC(=O)O)cc2)C(=O)N[C@@H](CCCCNC(=O)Cc2ccc(I)cc2)C(=O)O)c1)C(=O)O)C(=O)O` (stereo partly drawn) [RPS-068, (((1S)-1-carboxy-5-(3-(3-(1-(2-(((2S)-1-(((S)-1-carboxy-5-(2-(4-iodophenyl)acetamido)pentyl)amino)-1-oxo-6-(3-(4-((1,4,7,10-tetrakis(carboxymethyl)-1,4,7,10-tetraazacyclododecan-2-yl)methyl)phenyl)thioureido)hexan-2-yl)amino)-2-oxoethyl)-1H-1,2,3-triazol-5-yl)phenyl)ureido)pentyl)carbamoyl)-L-glutamic acid], the “Max. Tumor Uptake” value in series [1] (b = 24 h p.i.) is reported as 26.9 ± 2.0^b % ID/g. In addition, the IC50 at PSMA on LNCaP cells (setting [2]) worked out at 2.1 ± 0.1 nM.

Regarding `O=C(O)CC[C@H](NC(=O)N[C@@H](CCCCNC(=O)Nc1cccc(-c2cn(CCOCCOCCOCCC(=O)N[C@@H](CCCCNC(=S)Nc3ccc(CC4CN(CC(=O)O)CCN(CC(=O)O)CCN(CC(=O)O)CCN4CC(=O)O)cc3)C(=O)N[C@@H](CCCCNC(=O)Cc3ccc(I)cc3)C(=O)O)nn2)c1)C(=O)O)C(=O)O` (stereo partly drawn) [RPS-063, (((1S)-1-carboxy-5-(3-(3-(1-((14S,17S)-17-carboxy-24-(4-iodophenyl)-12,15,23-trioxo-14-(4-(3-(4-((1,4,7,10-tetrakis(carboxymethyl)-1,4,7,10-tetraazacyclododecan-2-yl)methyl)phenyl)thioureido)butyl)-3,6,9-trioxa-13,16,22-triazatetracosyl)-1H-1,2,3-triazol-4-yl)phenyl)ureido)pentyl)carbamoyl)-L-glutamic acid], the “Max. Tumor Uptake” value in series [1] (a = 4 h p.i.) came out at 30.0 % ID/g. The compound further showed an IC50 at PSMA on LNCaP cells of 1.5 ± 0.3 nM.

On to `O=C(O)CC[C@H](NC(=O)N[C@@H](CCCCNC(=O)Nc1cccc(-c2cn(CCOCCOCCOCCOCCOCCOCCOCCOCCC(=O)N[C@@H](CCCCNC(=S)Nc3ccc(CC4CN(CC(=O)O)CCN(CC(=O)O)CCN(CC(=O)O)CCN4CC(=O)O)cc3)C(=O)N[C@@H](CCCCNC(=O)Cc3ccc(I)cc3)C(=O)O)nn2)c1)C(=O)O)C(=O)O` (stereo partly drawn) [RPS-066, (((1S)-1-carboxy-5-(3-(3-(1-((29S,32S)-32-carboxy-39-(4-iodophenyl)-27,30,38-trioxo-29-(4-(3-(4-((1,4,7,10-tetrakis(carboxymethyl)-1,4,7,10-tetraazacyclododecan-2-yl)methyl)phenyl)thioureido)butyl)-3,6,9,12,15,18,21,24-octaoxa-28,31,37-triazanonatriacontyl)-1H-1,2,3-triazol-4-yl)phenyl)ureido)pentyl)carbamoyl)-L-glutamic acid], for which the “Max. Tumor Uptake” value in series [1] (a = 4 h p.i.) was determined as 18.7 % ID/g. At PSMA on LNCaP cells (setting [2]), the IC50 came out at 5.2 nM.

The values are drawn from patent US11285227B2, “Trifunctional constructs with tunablepharmacokinetics useful in imaging and anti-tumor therapies” (CORNELL UNIVERSITY, priority 2017, dated 2022).
